Assays:
Assay type in all cases: cell-based, mouse
Jak2 = assay: Western blot assay, Jak2 protein in ES cells; details: for Jak2 Protein expression level: ES cells, control group = 100%
Description: (§1) According to the known research at present, Jak2 and Stat3 proteins could be phosphorylated to form the active forms, and the Jak2-Stat3 signaling pathway will be activated when Jak2 and Stat3 were phosphorylated.
(§2) An experimental group medium (BP5 or BP10), a LIF-containing medium (without BP), and a control group medium (without BP) were used respectively to culture ES cells with an initial density of 1×10^4 per well in a 6-well culture dish. The medium was removed until the cells growth to be about 70 to 80% confluence. The proteins were extracted to conduct the Western blot assay by using rabbit anti-Jak2 antibody (Cell Signaling Technology), mouse anti-phospho-Jak2 antibody (Cell Signaling Technology), rabbit anti-Stat3 antibody (BD) and rabbit anti-phospho-Stat3 antibody (Cell Signaling Technology), to determine whether BP would affect the protein expression levels of the genes in the Jak-Stat3 signaling pathway.

OSM = assay: Real-time PCR, cytokine gene OSM in ES cells; details: for Osm mRNA expression level: ES cells, control group = 100%
Procedure: An experimental group medium (BP5, BP10, BP20 or BP40) and a control group medium (without BP) were added respectively to perform the following steps. ES cells were cultured with an initial density of 1×10^4 per well in a 6-well culture dish. The medium was removed until the cells growth to be about 70 to 80% confluence, and then 1 ml TRIzol (Invitrogen) was added into each well. The cells were incubated for 5 minutes, and then was scraped by a spatula and placed into a 1.5 ml microtube to be lysed adequately. Chloroform (0.2 ml) was added into the microtubes. The mixture was shaken up and down for 15 seconds, and then incubated at room temperature for 2 to 3 minutes. Thereafter, the mixture was centrifuged at 12000 rpm at 4° C. for 15 minutes, and the supernatant was removed into another 1.5 ml microtube and isopropanol (0.5 ml) was added into the microtube with well mixing. The mixture was incubated at room temperature for 10 minutes and then centrifuged at 12000 rpm at 4° C. for 10 minutes. The supernatant was then removed. One ml of 70% ethanol containing DEPC.H2O was used to wash the remaining sediment. The sediment was centrifuged at 7500 rpm at 4° C. for 5 minutes. The supernatant was removed. The sediment was dried by vacuum suction. The dried samples were dissolved in about 0.01 to 0.02 ml of DEPC.H2O to obtain the experimental group RNA and control group RNA. Both groups were stored at −80° C.
The OD value of RNA samples in both groups obtained from the above Experiment I were measured at a wavelength of 260 nm (RNA: OD260=1 for a 40 μg/mL solution). Each RNA sample (2 μl) was added with RNA-free water until the volume of the sample reached 10 μl. Two μl oligo (dT) (100 μg/ml) was added into each sample, and the samples were incubated at 65° C. for 5 minutes. Then, the samples were immediately placed on ice and spun down. Next, 6.5 μl of a reaction solution [4 μl of 5× buffer+1 μl of 0.1 M DTT+1 μl of RNase out+0.5 μl of SSIII (Invitrogen)] was added into each of the samples, and the samples were incubated at 50° C. for about 30 to 60 minutes and at 75° C. for 15 minutes to obtain the experimental group cDNA and control group cDNA. Both groups were stored at −80° C.
This experiment was used to detect the expression levels of ES cell-related genes, i.e., Oct4 and Sox2, etc. First, 4 μl of the experimental group cDNA or control group cDNA was added into each well of a 96-well micro-reaction plate, and mixed with 6 μl of a reaction solution [0.5 μl of 6 μM forward primer+0.5 μl of 6 μM reverse primer+5 μl of SYBR Green PCR Master mix (Roche)], wherein the SYBR Green PCR Master mix included the reagents needed for Q-PCR, such as dNTPs, MgCl, Taq DNA polymerase and 2×SYBR® Green I solution. […] The cycle threshold (CT) values were measured. […]

Stat3 = assay: Western blot assay, Stat3 protein in ES cells; details: for Stat3 Protein expression level: ES cells, control group = 100%
Description: as §1, §2

iPS cells [1] = assay: Embryoid body formation and differentiation of the generated iPS cells; details: iPS cells (T+P), BP10 medium, Tuj1, α-SMA, Gata4 staining
Procedure: An experimental group medium (BP10) was used to culture ES cells with an initial density of 1×10^4 per well in a 6-well culture dish. The ES cells were passaged 3 times and incubated for another 2 to 3 days in the Ultra Low Cluster Plate (Costar) containing the embryoid body formation medium [DMEM+20% FBS+β-mercaptoethanol (1 mM)+1% L-glutamine+1% NEAA], and then the embryoid body formation was observed. The embryoid bodies were placed into another 24-well culture dish (5 to 6 embryoid bodies/well) and incubated for another 3 days. Next, immunofluorescence staining was conducted to detect cells with an anti-Tuj1 antibody (ectoderm marker), an anti-α-SMA antibody (mesoderm marker) and an anti-Gata4 antibody (endoderm marker).
In addition, the iPS cells (T+P) were cultured by the steps shown in Example 7 to observe the embryoid body formation and differentiation.

iPS cells [2] = assay: AP staining and immunofluorescence staining of the generated iPS cells; details: experimental group (T+P), BP10 medium
Procedure: The AP activity of the obtained iPS cells was determined by AP staining. The expression levels of Nanog and SSEA1 as well as the embryoid body formation and differentiation were observed by immunofluorescence staining.

[3] = LIF-containing medium (LIF 4 ng/ml, without BP)
[4] = BP10 medium (about 10 μg BP/ml)
[5] = ES cell medium containing BP, result in words

## LIF: multifunctional cell factor used to maintain pluripotency of stem cells; LIF-containing medium (4 ng/ml, without BP) as comparison
Jak2; [3]
  Jak2 Protein expression level: 62%
OSM; LIF-containing medium (LIF 4 ng/ml)
  Osm mRNA expression level: 128%
Stat3; [3]
  Stat3 Protein expression level: 140%

## CCCC=C1OC(=O)c2ccccc21 [BP, n-butylidenephthalide]
iPS cells [1]
  embryoid body formation and differentiation of the iPS cells: can differentiate into three germ layer cells
Jak2; BP5 medium (about 5 μg BP/ml)
  Jak2 Protein expression level: 109%
Jak2; [4]
  Jak2 Protein expression level: 134%
Jak2; [5]
  total protein expression and phosphorylated protein expression level of Jak2: increased significantly
OSM; BP5 medium (about 5 μg BP/ml)
  Osm mRNA expression level: 109%
OSM; [4]
  Osm mRNA expression level: 246%
OSM; BP-containing ES cell medium, result in words
  mRNA expression level of OSM: significantly up-regulated
Stat3; BP5 medium (about 5 μg BP/ml)
  Stat3 Protein expression level: 139%
Stat3; [4]
  Stat3 Protein expression level: 165%
Stat3; [5]
  total protein expression and phosphorylated protein expression level of Stat3: increased significantly
iPS cells [2]
  expression levels of AP, Nanog and SSEA1 in the obtained iPS cells: higher expression levels of AP, Nanog, and SSEA1

— patent US20150056702A1, “METHOD AND KIT FOR CULTURING STEM CELLS” (China Medical University, priority 2013, published 2015)
